Test results as given in US20240285670A1, “THERAPEUTIC TREATMENT OF TUMORS BY BLOCKING THE HEME SYNTHESIS-EXPORT AXIS” (Università degli Studi di Torino, priority 2021, published 2024).

Tests used:
ALAS1 = assay: qRT-PCR analysis of ALAS1 expression in C80 cells; type: cell-based, human; conditions: FLVCR1a-silenced vs scramble shRNA C80 cells
Procedure: (A) Heme content in Caco2 cells treated with 5 mM 5-ALA (black bars and white bars) or with 5 mM 5-ALA+0.5 mM SA (light grey outlined bars) for the indicated time points. […] Values are expressed as relative fluorescence intensity. Data represent mean±SEM, n=2. For statistical analyses, a two-way analysis of variance was used, followed by the Bonferroni correction for multiple group comparisons; **=p<0.01, ***=p<0.001. 5-ALA, 5-aminolevulinic acid; SA, succinylacetone. (B) Intracellular 5-ALA levels. […] Values are expressed as peak area/μg proteins. Data represent mean±SEM of n=4 wells pooled from two independent experiments. For statistical analyses, an unpaired Student's t-test was used; **=p<0.01. 5-ALA, 5-aminolevulinic acid. (C, D) Accumulation of ^13C2-5-ALA in cells incubated with U-^13C-glucose (C) or of ^13C3-5-ALA in cells incubated with U-^13C-glutamine (D) for the indicated time. […] Values are expressed as peak area/μg proteins. […] Transcript abundance, normalized to beta-actin mRNA expression, is expressed as a fold increase over a calibrator sample. […] Band intensities were measured by densitometry and normalized to vinculin expression. […]
RNA extraction and quantitative real-time PCR analyses were performed as described previously (Destefanis et al., 2019). […] Quantitative real-time PCR (qRT-PCR) was performed using the Universal Probe Library system (Roche, Basel, CH). […]

SKCO1 cells = assay: Activity of mitochondrial ETC complexes I-IV in SKCO1 cells; type: cell-based, human; conditions: FLVCR1a-silenced vs scramble shRNA SKCO1 cells
Text: (A, C, E) Activities of the mitochondrial electron transport chain complexes I-IV. FLVCR1a-silenced Caco2 (A), SKCO1 (C) or C80 cells (E) are compared to cells expressing a scramble shRNA. Results were expressed as nmol NAD^+/min/mg mitochondrial protein for complex I, nmol reduced cytochrome c/min/mg mitochondrial protein for complexes II-III, nmol oxidized cytochrome c/min/mg mitochondrial protein for complex IV. Data represent mean±SEM, n=3. For statistical analyses, an unpaired Student's t-test was used; *=p<0.05, **=p<0.01. (B, D, F) Mitochondrial ATP levels measured by a bioluminescent assay kit. FLVCR1a-silenced Caco2 (B), SKCO1 (D) or C80 cells (F) are compared to cells expressing a scramble shRNA. Results are expressed as nmol/mg mitochondrial proteins. Data represent mean±SEM, n=3. […] Results were expressed as nmol NAD^+/min/mg mitochondrial protein for complex I, nmol reduced cytochrome c/min/mg mitochondrial protein for complexes II-III, nmol oxidized cytochrome c/min/mg mitochondrial protein for complex IV. […] (H) Mitochondrial ATP levels measured by a bioluminescent assay kit in Caco2 cells overexpressing FLVCR1a (indicated as FLVCR1a+) compared to cells stably transduced with an empty vector. Results are expressed as nmol/mg mitochondrial proteins. […]
The activity of mitochondria respiration complexes was measured according to (Wibom et al., 2002).

FLVCR1a shRNA: shRNA specifically down-regulating FLVCR1a without targeting FLVCR1b; pLKO.1 lentiviral clone TRCN0000059599, antisense SEQ ID No.: 2 (antisense TTGCTAATGATGCTGTACTGG; sense CCAGTACAGCATCATTAGCAA)
ALAS1 expression (qRT-PCR) (ALAS1): reduced ALAS1 expression | ETC complexes activity (SKCO1 cells): increased ETC complexes activity
